Results taken from ChEMBL document CHEMBL5331092, “PROTACS: A technology with a gold rush-like atmosphere” (Eur J Med Chem, 2023).

Legend:
[1] = target: von Hippel-Lindau disease tumor suppressor/Androgen receptor (Homo sapiens) (UniProt P10275+P40337); test: PROTAC activity at VHL/AR in human VCaP cells assessed as maximum degradation at 5 nM relative to control; type: cell-based
[2] = target: Protein cereblon/Tyrosine-protein kinase BTK (Homo sapiens, UniProt Q06187+Q96SW2); test: PROTAC activity at CRBN/BTK in human TMD8 cells assessed as induction of BTK degradation incubated for 24 hrs by immunoblotting analysis; type: cell-based
[3] = target: T1, Protein cereblon/Estrogen receptor (Homo sapiens, UniProt P03372+Q96SW2); test: Protac activity at CRBN E3 ligase/Estrogen receptor in human MCF7 cells assessed as induction of estrogen receptor degradation measured upto 24 hrs by ELISA method; type: cell-based
Target sequence in this assay (P03372 whole entry): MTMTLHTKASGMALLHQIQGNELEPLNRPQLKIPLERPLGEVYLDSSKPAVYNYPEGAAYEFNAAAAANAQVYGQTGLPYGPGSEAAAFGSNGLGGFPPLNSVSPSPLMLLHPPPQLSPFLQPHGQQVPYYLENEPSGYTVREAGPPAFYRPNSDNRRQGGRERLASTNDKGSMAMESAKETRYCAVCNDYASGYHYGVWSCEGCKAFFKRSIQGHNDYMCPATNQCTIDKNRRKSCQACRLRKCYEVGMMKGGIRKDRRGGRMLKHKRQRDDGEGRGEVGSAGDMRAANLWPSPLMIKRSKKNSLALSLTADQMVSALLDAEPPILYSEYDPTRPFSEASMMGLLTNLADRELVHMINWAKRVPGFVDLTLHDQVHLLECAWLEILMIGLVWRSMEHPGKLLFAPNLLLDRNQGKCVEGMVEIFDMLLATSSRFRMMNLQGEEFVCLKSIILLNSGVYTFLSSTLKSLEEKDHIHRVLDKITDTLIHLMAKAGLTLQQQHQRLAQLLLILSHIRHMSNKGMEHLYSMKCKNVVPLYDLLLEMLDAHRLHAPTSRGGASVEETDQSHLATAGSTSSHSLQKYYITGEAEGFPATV
Target sequence in this assay (Q96SW2 whole entry): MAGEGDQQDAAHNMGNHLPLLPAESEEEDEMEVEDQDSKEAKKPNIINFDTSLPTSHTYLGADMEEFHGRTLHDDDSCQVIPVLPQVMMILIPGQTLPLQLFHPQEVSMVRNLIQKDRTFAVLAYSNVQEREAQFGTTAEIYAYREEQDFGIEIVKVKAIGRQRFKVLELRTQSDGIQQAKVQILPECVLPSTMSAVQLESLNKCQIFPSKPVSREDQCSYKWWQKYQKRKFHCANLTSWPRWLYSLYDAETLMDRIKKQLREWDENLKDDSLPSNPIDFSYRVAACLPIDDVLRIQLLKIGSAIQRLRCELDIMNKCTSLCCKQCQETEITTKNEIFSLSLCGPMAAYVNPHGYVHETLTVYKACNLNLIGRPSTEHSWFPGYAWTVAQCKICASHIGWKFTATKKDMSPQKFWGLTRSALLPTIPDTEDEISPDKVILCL

[4] = target: T1, Protein cereblon/Estrogen receptor; test: Protac activity at CRBN E3 ligase/Estrogen receptor in human MCF7 cells assessed maximum degradation at 1.5 uM measured upto 24 hrs by ELISA method relative to control; type: cell-based
Target sequence in this assay (P03372 whole entry, looked up): as the sequence (P03372 whole entry) above
Target sequence in this assay (Q96SW2 whole entry, looked up): as the sequence (Q96SW2 whole entry) above

[5] = target: T1, Protein cereblon/Estrogen receptor; test: Protac activity at CRBN E3 ligase/Estrogen receptor in human T47D cells assessed as induction of estrogen receptor degradation measured upto 24 hrs by ELISA method; type: cell-based
Target sequence in this assay (P03372 whole entry): as the sequence (P03372 whole entry) above
Target sequence in this assay (Q96SW2 whole entry): as the sequence (Q96SW2 whole entry) above

[6] = target: T1, Protein cereblon/Estrogen receptor; test: Protac activity at CRBN E3 ligase/Estrogen receptor in human T47D cells assessed maximum degradation at 1.5 uM measured upto 24 hrs by ELISA method relative to control; type: cell-based
Target sequence in this assay (P03372 whole entry, looked up): as the sequence (P03372 whole entry) above
Target sequence in this assay (Q96SW2 whole entry, looked up): as the sequence (Q96SW2 whole entry) above

[7] = target: Protein cereblon/Focal adhesion kinase 1 (Homo sapiens) (UniProt Q05397+Q96SW2); test: Protac activity at CRBN E3 ligase/FAK (unknown origin) assessed as […] FAK degradation at 10 nM relative to control; type: protein assay; design: scale not given: the % may be the effect or the level left
Protein cereblon/Focal adhesion kinase 1 (Homo sapiens), sequence (Q05397 2-1052 limits assumed): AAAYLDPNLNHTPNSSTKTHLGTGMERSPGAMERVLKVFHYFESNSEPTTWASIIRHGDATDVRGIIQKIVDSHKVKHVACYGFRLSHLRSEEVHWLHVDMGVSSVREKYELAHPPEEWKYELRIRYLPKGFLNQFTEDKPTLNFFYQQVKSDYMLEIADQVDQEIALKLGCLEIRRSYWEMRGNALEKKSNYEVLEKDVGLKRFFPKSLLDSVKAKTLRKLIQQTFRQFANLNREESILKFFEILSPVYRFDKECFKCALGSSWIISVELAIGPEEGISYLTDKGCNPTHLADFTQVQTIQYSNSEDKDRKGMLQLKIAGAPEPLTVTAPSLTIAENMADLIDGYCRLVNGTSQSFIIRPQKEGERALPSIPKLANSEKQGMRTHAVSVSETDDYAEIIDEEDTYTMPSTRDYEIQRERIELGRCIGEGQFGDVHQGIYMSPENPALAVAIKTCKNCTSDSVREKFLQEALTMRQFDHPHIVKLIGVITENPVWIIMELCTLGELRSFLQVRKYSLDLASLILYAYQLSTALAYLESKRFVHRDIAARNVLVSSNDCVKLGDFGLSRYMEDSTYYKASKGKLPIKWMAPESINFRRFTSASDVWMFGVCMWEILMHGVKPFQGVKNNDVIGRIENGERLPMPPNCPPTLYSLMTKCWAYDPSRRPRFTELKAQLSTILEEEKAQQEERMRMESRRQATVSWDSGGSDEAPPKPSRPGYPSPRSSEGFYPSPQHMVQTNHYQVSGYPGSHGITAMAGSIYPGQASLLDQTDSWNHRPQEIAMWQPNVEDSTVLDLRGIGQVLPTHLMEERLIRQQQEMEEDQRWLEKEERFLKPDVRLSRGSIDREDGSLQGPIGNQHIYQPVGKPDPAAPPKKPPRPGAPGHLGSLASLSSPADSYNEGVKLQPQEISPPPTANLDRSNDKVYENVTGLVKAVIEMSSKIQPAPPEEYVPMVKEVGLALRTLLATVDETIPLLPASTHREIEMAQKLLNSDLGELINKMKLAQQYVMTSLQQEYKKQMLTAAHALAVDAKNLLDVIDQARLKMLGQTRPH
Protein cereblon/Focal adhesion kinase 1 (Homo sapiens), sequence (Q96SW2 whole entry partner): as the sequence (Q96SW2 whole entry) above

Protein cereblon/Tyrosine-protein kinase BTK, sequence (Q06187 whole entry): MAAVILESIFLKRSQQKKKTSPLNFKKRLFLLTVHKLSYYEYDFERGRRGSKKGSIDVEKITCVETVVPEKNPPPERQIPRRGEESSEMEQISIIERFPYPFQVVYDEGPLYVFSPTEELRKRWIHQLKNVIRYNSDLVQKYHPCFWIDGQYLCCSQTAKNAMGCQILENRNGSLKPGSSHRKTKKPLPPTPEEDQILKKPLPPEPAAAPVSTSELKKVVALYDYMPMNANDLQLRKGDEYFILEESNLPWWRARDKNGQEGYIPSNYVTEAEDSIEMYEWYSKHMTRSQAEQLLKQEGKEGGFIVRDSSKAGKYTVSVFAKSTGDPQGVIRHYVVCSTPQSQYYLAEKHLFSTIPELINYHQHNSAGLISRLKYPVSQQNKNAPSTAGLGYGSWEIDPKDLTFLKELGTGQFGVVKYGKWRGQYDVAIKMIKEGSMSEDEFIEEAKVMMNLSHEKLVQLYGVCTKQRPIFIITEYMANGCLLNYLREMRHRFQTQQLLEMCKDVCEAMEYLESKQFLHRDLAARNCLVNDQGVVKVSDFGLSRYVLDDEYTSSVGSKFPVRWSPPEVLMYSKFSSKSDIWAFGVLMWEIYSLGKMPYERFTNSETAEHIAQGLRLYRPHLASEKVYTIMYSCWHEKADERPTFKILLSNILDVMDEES
Protein cereblon/Tyrosine-protein kinase BTK, sequence (Q96SW2 whole entry): as the sequence (Q96SW2 whole entry) above
von Hippel-Lindau disease tumor suppressor/Androgen receptor (Homo sapiens), sequence (P10275 whole entry, looked up): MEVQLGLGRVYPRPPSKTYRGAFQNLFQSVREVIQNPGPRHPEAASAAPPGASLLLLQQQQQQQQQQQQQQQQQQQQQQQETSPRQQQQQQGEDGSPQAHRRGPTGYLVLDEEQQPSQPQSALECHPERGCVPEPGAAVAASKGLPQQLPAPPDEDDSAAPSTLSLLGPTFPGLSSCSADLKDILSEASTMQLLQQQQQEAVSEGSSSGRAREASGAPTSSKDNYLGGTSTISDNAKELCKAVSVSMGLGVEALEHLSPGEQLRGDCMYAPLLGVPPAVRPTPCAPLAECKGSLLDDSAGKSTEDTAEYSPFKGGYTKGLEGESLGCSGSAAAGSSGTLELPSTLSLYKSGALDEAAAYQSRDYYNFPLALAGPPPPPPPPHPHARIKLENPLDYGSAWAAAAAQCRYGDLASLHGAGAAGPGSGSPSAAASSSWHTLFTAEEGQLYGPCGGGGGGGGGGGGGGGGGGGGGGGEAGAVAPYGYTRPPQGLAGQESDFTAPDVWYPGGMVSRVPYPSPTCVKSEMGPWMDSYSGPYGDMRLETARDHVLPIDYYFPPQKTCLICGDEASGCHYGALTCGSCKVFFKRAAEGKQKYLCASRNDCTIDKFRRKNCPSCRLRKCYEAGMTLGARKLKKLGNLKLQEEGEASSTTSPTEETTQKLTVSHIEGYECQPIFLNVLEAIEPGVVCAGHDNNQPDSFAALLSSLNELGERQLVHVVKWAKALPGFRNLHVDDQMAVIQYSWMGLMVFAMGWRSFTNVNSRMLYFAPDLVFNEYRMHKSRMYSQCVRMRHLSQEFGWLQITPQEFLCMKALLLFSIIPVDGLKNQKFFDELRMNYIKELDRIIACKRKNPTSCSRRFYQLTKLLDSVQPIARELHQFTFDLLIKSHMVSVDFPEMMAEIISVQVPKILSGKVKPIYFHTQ
von Hippel-Lindau disease tumor suppressor/Androgen receptor (Homo sapiens), sequence (P40337 whole entry, looked up): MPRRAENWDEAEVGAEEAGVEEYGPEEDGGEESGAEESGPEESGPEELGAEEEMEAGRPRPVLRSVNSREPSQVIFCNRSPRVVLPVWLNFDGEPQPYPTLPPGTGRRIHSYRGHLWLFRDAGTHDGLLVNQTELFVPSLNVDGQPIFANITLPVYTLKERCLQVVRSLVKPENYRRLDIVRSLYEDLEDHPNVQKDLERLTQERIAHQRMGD

SMILES: Cc1ncsc1-c1ccc(CNC(=O)C2C[C@@H](O)CN2C(=O)C(NC(=O)COCCCCOc2ccc(-c3ccc(N4C(=S)N(c5ccc(C#N)c(C(F)(F)F)c5)C(=O)C4(C)C)cc3)cc2)C(C)(C)C)cc1 (some centres undefined)
- Emax [1]: 95%

SMILES: Cc1cccc(C)c1Nc1nn(C)c2nc(Nc3ccc4c(c3)CN(CC3CCN(c5ccc6c(c5)C(=O)N(C5CCC(=O)NC5=O)C6=O)CC3)CC4)ncc12 (centres undefined)
- EC50 [2]: 4 nM

SMILES: Cc1ncsc1-c1ccc([C@H](C)NC(=O)C2C[C@@H](O)CN2C(=O)[C@@H](NC(=O)CCCCOc2ccc(/C=N/NC(=O)c3ccc(C(=O)c4c(-c5ccc(O)cc5)sc5cc(O)ccc45)cc3)cc2)C(C)(C)C)cc1 (some centres undefined)
- EC50 [3]: 10 nM
- Emax [4]: > 95%
- EC50 [5]: 10 nM
- Emax [6]: > 95%

SMILES: CN(c1ncccc1CNc1nc(Nc2ccc(NC(=O)c3cn(CCOCCOCCNc4cccc5c4C(=O)N(C4CCC(=O)NC4=O)C5=O)nn3)cc2)ncc1C(F)(F)F)S(C)(=O)=O (centres undefined)
- Activity [7]: 90%

SMILES: Cc1ncsc1-c1ccc([C@H](C)NC(=O)C2C[C@@H](O)CN2C(=O)[C@@H](NC(=O)CCCCOc2ccc(CCNC(=O)c3ccc(C(=O)c4c(-c5ccc(O)cc5)sc5cc(O)ccc45)cc3)cc2)C(C)(C)C)cc1 (some centres undefined)
- EC50 [3]: 1.1 nM
- Emax [4]: 98%
